From PMC7352571, “New Anti-Cancer Strategy to Suppress Colorectal Cancer Growth Through Inhibition of ATG4B and Lysosome Function” (Cancers, 2020)

Tests used:
MGC803 cells = experiment: CCK-8 cell viability assay, MGC803; type: cell-based; conditions: Homo sapiens, MGC-803; CCK-8 assay, 48 h
Protocol: (§1) Cells were seeded and incubated overnight in 96-well plates at a density of 5 × 10^3 cells/well. […] A total of 10 µL CCK-8 were added to each well for additional 1 h and cell viability was measured by CCK-8 assay. Absorbance was measured at 450 nm. The IC50 values were calculated by GraphPad Prism 7 (GraphPad Software Inc., San Diego, CA, USA).

SGC7901 cells = experiment: CCK-8 cell viability assay, SGC7901; type: cell-based; conditions: Homo sapiens, SGC-7901; CCK-8 assay, 48 h
Protocol: as §1

U87 cells = experiment: CCK-8 cell viability assay, U87; type: cell-based; conditions: Homo sapiens, U-87 MG; CCK-8 assay, 48 h
Protocol: as §1

KYSE150 cells = experiment: CCK-8 cell viability assay, KYSE150; type: cell-based; conditions: Homo sapiens, KYSE-150; CCK-8 assay, 48 h
Protocol: as §1

MDA-MB-231 cells = experiment: CCK-8 cell viability assay, MDA-MB-231; type: cell-based; conditions: Homo sapiens, CCK-8 assay, 48 h
Protocol: as §1

[1] = tested on: lysosome acidity in HeLa cells; experiment: LysoTracker Red (LTR) assay, HeLa; type: cell-based; conditions: 6 h, 163N 5 or 10 µM, Rap 1 µM, E64D 25 µM plus pepstatin A 50 µM
Protocol: (§2) Figure 5 163N causes lysosome dysfunction. […] (C) HeLa cells were treated with or without 163N (10 µM) for 6 h, followed by immunostaining using cathepsin B and LAMP1 antibody. The colocalization of cathepsin B and LAMP1 was measured.
LTR assay: cells were incubated with LTR (25 nM) in HBSS medium at 37° for 30 min, and then fluorescence microscopy was used for detecting fluorescence intensity.

[2] = tested on: proteolytic activity of lysosomes in HeLa cells; experiment: DQ-BSA Red assay; type: cell-based; conditions: 6 h, 163N 5 or 10 µM, Baf 0.5 µM, E64D 25 µM plus pepstatin A 50 µM
Protocol: Figure 5 163N causes lysosome dysfunction. […] . (C) HeLa cells were treated with or without 163N (10 µM) for 6 h, followed by immunostaining using cathepsin B and LAMP1 antibody. The colocalization of cathepsin B and LAMP1 was measured.
DQ-BSA Red assay: cells were incubated with 10 µg/mL DQ-BSA Red in EBSS medium at 37° for 1.5 h, and then new medium with or without the indicated compounds were added for another 4 or 6 h, and then fluorescence microscopy was used for detecting the intensity of red fluorescent.
Supplementary Materials: New Anti-Cancer Strategy
to Suppress Colorectal Cancer Growth Through
Inhibition of ATG4B and Lysosome Function
Figure S1. Compounds with a 6-methylpyrimidine-2,4-diamine structure could cause lysosome
inhibition. (A) The structure of the representative lysosome inhibitors. (B) GFP-LC3B HeLa cells were
treated with Baf (0.5 µM) or 5 µM of different lysosome inhibitors for 2 h, then LysoTracker Red (LTR,
25 ng/mL) was used and the relative LTR fluorescent intensity was measured. (C) HeLa cells were
firstly treated with 10 µg/mL DQ-BSA for 1.5 h, and then treated with Rap (1 µM), Baf (0.5 µM), E64D
(25 µM) plus pepstatin A (50 µM), or 5 µM of different lysosome inhibitors for 4 h.
Cancers 2020, 12, x; www.mdpi.com/journal/ cancers […]

[3] = tested on: lysosomal membrane permeabilization in HeLa cells; experiment: immunostaining, colocalization of cathepsin B and LAMP1; type: cell-based; conditions: 10 µM, 6 h
Protocol: as §2
Immunostaining assay was performed as described previously. Cells were fixed in 4% paraformaldehyde for 15–20 min followed by permeabilization with 0.1% Triton X-100 for another 15 min. Then, PBS containing 5% bovine serum albumin was used for blocking. Primary antibodies (1:150) was used at 4° for one night and then secondary antibodies (1:500) were applied at room temperature for 1 h. EVOS FL Auto (Life Technologies) was used to get the fluorescence images. At least three optical fields with at least 100 cells were analyzed for quantification.

HCT116 cells = experiment: wound healing assay; type: cell-based, Human; conditions: 10 µM, 48 h
Protocol: Cells were seeded in 12-well plates. After the cells grew to confluence, wounds were made by sterile pipette tips. The cells were photographed at the beginning of wound formation. […] The distance of cell migration was calculated from three independent experiments.

HCT116 xenograft = experiment: HCT116 mouse xenograft model; type: in vivo, mice
Protocol: Figure 7 163N inhibits tumor growth in a HCT116 mouse xenograft model. (A) HCT116 cells ([…]) were injected subcutaneously into the right flank of the immunodeficient nu/nu female mice. Seven days after tumor cell implantation, mice with palpable tumors were divided randomly into two groups and injected intraperitoneal on Monday, Wednesday, and Friday with either corn oil vehicle or 163N (50 mg/kg). Tumor volumes were calculated by the length and width measured by Vernier calipers every 2 d. (B) Body weight changes of mice during 28 d of exposure. (C) Tumor tissues were sectioned and subjected to H&E staining and immunohistochemistry for evaluating histological morphology, and expression of LC3B and SQSTM1. Scale bar: 50 µm. (D) TEM was used to detect the ultrastructure of the representative tumor tissues. Red arrows represent normal autolysosome structures. Data are presented as mean ± SEM. ** p < 0.01 vs VC.
The animal experimental procedures were approved by the Research Ethics Committee of Sun Yat-sen University (Guangzhou, China), ethic code: SYSU-IACUC-2018-000134. Four-week-old immunodeficient mice (nu/nu, female) were raised in a pathogen-free environment in the Experimental Animal Center of Sun Yat-sen University. Human colorectal cancer HCT116 cells (3 × 10^6) were injected subcutaneously into the right flank of the animals. Seven days after tumor cell implantation, mice with palpable tumors were divided randomly into two groups and injected intraperitoneal on Monday, Wednesday, and Friday of the following treatments: (1) vehicle control (corn oil); (2) 163N (50 mg/kg body weight) dissolved in corn oil. Tumors were measured using calipers and the tumor volume (mm^3) was calculated as follows: V = (L × W2)/2, L and W represents tumor length and width, respectively. At the end of the experiment (5 weeks after tumor implantation), the mice were given 200 µL of pentobarbital sodium (1%) by i.p. 30 min before sacrifice, tumors and organs were collected and weighed.

In the case of `COc1ccc(Nc2cc(C)nc(Nc3ccc(-c4cc5ccccc5o4)cc3)n2)cc1` [Compound 163N], the IC50 (MGC803 cells) is reported as 9.33 µM, the IC50 (SGC7901 cells) is reported as 21.2 µM and the IC50 (U87 cells) is reported as 10.6 µM. For the same molecule, the IC50 (KYSE150 cells) was 13 µM, the IC50 (MDA-MB-231 cells) was 9.99 µM and the “LTR red fluorescence / acidic vesicles” value [1] was “significant reduction in acidic vesicles”. For the same molecule, the “dequenching of DQ-BSA (proteolytic activity of lysosome)” value [2] was “nearly no dequenching of DQ-BSA”, the “lysosomal membrane permeabilization (cathepsin B/LAMP1 colocalization)” value [3] was “did not produce lysosomal membrane permeabilization” and the “migration of wild type HCT116 cells” value (HCT116 cells) was “significantly inhibited the migration”. For the same molecule, the “LC3B and SQSTM1 in tumor tissue by immunohistochemistry” value (HCT116 xenograft; 50 mg/kg intraperitoneal) was “increased levels of LC3B and SQSTM1”, the tumor growth (HCT116 xenograft; 50 mg/kg intraperitoneal Mon/Wed/Fri, nu/nu female mice, vs vehicle) was “less prominent” and the body weight (HCT116 xenograft; 50 mg/kg intraperitoneal, 28 d, vs vehicle) was “no significant changes in body weight”. For the same molecule, the “weight index and morphology of heart, liver, spleen, lung, kidney” value (HCT116 xenograft; 50 mg/kg intraperitoneal, vs vehicle) was “no significant changes in weight index”.
